Measurements taken from ChEMBL document CHEMBL1201862, “PubChem BioAssay data set” (2004).
Each block holds one molecule with its values, some of them ahead of it. Calls of active or inactive are those of the source.

Tests used:
[1] = biological target: T1, Estrogen receptor (Homo sapiens, UniProt P03372); assay: blockers of SRC-3 recruitment to ERα – biochemical, ELISA, streptavidin-HRP readout, orthogonal assay, confirmation (AID 1079)
T1 sequence (P03372 whole entry): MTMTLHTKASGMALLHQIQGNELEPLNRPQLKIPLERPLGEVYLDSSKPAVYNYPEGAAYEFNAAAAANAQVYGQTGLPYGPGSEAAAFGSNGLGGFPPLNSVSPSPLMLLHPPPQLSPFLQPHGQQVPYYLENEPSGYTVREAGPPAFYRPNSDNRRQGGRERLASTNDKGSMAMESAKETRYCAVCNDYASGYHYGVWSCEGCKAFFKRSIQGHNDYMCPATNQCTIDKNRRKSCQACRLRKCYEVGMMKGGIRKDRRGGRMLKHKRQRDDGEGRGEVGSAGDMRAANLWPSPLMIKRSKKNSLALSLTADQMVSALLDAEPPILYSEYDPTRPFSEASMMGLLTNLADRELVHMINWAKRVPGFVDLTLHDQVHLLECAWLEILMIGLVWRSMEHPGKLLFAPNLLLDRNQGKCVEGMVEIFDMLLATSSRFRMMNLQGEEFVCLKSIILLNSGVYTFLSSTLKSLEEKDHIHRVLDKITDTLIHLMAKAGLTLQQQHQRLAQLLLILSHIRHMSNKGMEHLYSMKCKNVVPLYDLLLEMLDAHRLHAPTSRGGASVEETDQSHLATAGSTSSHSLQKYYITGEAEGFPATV

[2] = HPDE-C7 pancreatic duct cell viability loss – fluorescence, HTS (AID 430); assay type: functional, cell-based; conditions: Homo sapiens
[3] = biological target: T1, Estrogen receptor; assay: ERα coactivator recruitment enhancers – biochemical, TR-FRET, ERα LBD, dose response (AID 737)
[4] = viability loss of HPDE-C7K cells – cell-based, fluorescence, HTS, primary screen (AID 431); assay type: functional; conditions: Homo sapiens
[5] = biological target: Serine/threonine-protein phosphatase (Homo sapiens, UniProt Q9BPW0); assay: Counterscreen for inhibitors of PP1: fluorescence-based biochemical high throughput dose response assay to identify inhibitors of Protein Phosphatase 5 (PP5). [Related pubchem assays: 2034 (Summary (PP5 inhibitors)), 1987 (PP5 inhibitors in singlate), 2235 (PP1 inhibitors in singlate)]
Serine/threonine-protein phosphatase, sequence (Q9BPW0 whole entry): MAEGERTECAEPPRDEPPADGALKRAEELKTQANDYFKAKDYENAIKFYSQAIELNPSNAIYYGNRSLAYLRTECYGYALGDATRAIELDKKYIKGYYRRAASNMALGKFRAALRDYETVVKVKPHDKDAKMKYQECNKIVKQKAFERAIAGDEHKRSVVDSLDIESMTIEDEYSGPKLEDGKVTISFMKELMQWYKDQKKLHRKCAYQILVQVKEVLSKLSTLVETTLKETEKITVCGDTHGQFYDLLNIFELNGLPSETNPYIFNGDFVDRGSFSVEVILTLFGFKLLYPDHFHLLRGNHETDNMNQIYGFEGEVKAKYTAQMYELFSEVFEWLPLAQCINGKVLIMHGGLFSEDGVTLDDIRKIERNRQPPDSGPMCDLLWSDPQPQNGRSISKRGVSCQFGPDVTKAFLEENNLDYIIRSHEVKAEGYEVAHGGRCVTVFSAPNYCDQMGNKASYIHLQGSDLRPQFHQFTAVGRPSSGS

[6] = biological target: Serine/threonine-protein phosphatase PP1-alpha catalytic subunit (Homo sapiens, UniProt P62136); assay: inhibition of protein phosphatase 1 activity – biochemical, fluorescence, dose response (AID 2403);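 further: phosphatase turnover of OMFP into fluorescent 3-O-methylfluorescein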
Serine/threonine-protein phosphatase PP1-alpha catalytic subunit, sequence (P62136 whole entry): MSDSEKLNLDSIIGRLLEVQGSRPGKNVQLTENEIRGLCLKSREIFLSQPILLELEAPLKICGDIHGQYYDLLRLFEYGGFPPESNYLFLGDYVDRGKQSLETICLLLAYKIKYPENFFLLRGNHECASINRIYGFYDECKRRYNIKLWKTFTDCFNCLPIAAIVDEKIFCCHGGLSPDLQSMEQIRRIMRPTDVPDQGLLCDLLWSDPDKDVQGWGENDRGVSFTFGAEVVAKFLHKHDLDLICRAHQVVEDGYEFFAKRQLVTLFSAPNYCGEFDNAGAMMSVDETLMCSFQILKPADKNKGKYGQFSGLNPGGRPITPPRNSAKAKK

[7] = biological target: NADPH oxidase 1 (Homo sapiens, UniProt Q9Y5S8); assay type: functional, cell-based;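 further: Cell-based assay with luminescence read-out, IC50 derived from inhibitor dose-response curves; intracellular ROS from endogenous NOX1 in intact HT29 colon cancer cells; potency of inhibitors that lower the ROS luminescence signal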
NADPH oxidase 1, sequence (Q9Y5S8 whole entry): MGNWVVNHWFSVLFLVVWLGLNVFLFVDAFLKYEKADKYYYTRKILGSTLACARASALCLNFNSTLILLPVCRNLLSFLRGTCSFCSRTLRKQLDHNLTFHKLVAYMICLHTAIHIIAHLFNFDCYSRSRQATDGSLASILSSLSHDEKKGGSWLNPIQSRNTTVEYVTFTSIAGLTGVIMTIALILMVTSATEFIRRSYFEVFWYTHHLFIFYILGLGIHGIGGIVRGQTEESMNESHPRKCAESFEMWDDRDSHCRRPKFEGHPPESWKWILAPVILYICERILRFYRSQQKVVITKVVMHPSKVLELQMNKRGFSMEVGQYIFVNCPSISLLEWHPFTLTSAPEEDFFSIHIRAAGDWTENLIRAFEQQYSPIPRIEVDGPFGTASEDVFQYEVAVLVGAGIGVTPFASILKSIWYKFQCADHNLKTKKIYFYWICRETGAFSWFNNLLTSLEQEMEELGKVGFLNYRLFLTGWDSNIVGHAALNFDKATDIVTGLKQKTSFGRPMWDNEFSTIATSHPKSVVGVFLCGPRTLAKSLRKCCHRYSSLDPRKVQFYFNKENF

IC50 [1]: 0.05 µM (not active)
Structure (SMILES): O=C(CCCn1c(=S)[nH]c2ccccc2c1=O)N1CCC(c2ccccc2)CC1

Structure (SMILES): CCC(=O)Oc1ccc(C(CC)C(CC)c2ccc(OC(=O)CC)cc2)cc1 (configuration not stated)
EC50 [2]: 9.19 µM (active) | EC50 [3]: 10.2 µM (active) | EC50 [4]: 10.7 µM (active)

Structure (SMILES): CCOC(=O)c1cnc(-n2cc(C)cn2)nc1NCc1ccc2c(c1)OCO2
IC50 [5]: > 67 µM (not active) | IC50 [6]: 5.96 µM (active)

IC50 [7]: 1.15 µM (active)
Structure (SMILES): COc1cc(-c2nc3c4ccccc4c4ccccc4c3[nH]2)ccc1O
